14 molecules from patent US8569343B2, “Oligomer-opioid agonist conjugates” (Nektar Therapeutics, priority 2007, dated 2013) can be followed below.

In general, EC50 refers to the concentration at which the effect is half-maximal. A lower EC50 goes with an effect from little substance.

Like-named read-outs stand apart in the source and are kept apart here. Bounds are passed on as bounds.

For experiment [1], the target named is recombinant human delta opioid receptor (Homo sapiens, UniProt P41143). As to conditions: GTP-γS binding, screened up to 10 μM in agonist and antagonist mode. (Binding of GTPγS marks nucleotide exchange on a G protein.)
Sequence of recombinant human delta opioid receptor (P41143 whole entry): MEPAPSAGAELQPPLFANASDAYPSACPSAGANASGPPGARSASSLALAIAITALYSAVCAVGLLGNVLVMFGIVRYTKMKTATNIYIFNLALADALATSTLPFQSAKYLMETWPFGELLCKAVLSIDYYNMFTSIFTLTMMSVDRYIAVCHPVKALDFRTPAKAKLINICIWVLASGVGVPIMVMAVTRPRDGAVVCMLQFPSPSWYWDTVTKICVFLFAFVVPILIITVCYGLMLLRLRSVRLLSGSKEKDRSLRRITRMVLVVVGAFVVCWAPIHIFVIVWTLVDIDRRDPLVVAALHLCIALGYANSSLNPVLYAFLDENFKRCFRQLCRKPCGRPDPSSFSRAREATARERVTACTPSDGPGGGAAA
Description: The reaction is initiated by 0.3 nM [^35S]GTPγS for an additional 30 minutes incubation period. Test compound-induced increase of [^35S]GTPγS binding by 50 percent or more (≧50%) relative to the receptor subtype-specific agonist response indicates possible opiate receptor agonist activity.
The target of experiment [2] is T1, cloned human kappa opioid receptor (Homo sapiens, UniProt P41145).
T1 construct: expressed in transfected cells; host or cells: CHO cells
T1 sequence (P41145 whole entry): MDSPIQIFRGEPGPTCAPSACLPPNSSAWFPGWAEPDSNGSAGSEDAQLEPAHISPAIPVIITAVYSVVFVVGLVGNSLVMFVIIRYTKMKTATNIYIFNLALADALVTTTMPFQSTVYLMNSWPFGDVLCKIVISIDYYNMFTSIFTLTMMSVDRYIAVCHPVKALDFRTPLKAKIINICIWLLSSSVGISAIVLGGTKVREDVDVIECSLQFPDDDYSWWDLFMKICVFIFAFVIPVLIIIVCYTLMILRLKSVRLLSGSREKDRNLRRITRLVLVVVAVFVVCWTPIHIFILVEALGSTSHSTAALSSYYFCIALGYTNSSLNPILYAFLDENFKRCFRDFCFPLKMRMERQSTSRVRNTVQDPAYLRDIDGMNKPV
The experiment in a line: cell-based. The method, then:
The efficacy of the various PEG-opioid conjugates was measured by their ability to inhibit cAMP formation following receptor activation. Studies were conducted in CHO cells heterologously expressing the cloned human mu, kappa or delta opioid receptors. cAMP was measured using a cAMP HiRange homogenous time-resolved fluorescence assay (HTRF Assay), that is based on a competitive immunoassay principle (Cisbio, Cat. #62AM6PEC).
Briefly, suspensions of cells expressing either the mu, kappa or delta opioid receptors were prepared in buffer containing 0.5 mM isobutyl-methyl xanthine (IBMX). […] EC50 values were calculated for each compound from a sigmoidal dose-response plot of concentrations versus maximum response. To determine if the compounds behaved as full or partial agonists in the system, the maximal response at the highest tested concentrations of compounds were compared to that produced by a known full agonist.

Where [3] appears, read: inhibition of cAMP formation, 3 μM forskolin, tested upto 500 μM.

With `COCCOCCOCCO[C@H]1CC[C@@]2(O)[C@H]3Cc4ccc(O)c5c4[C@@]2(CCN3CC2CCC2)C1O5` (some centres unmarked) [6-O-mPEG3-Nalbuphine, 6-O-mPEG3-nalbuphine], the “effect at the delta opioid receptor” value in experiment [1] is “no effect”.
For the molecule `COc1ccc2c3c1O[C@H]1C(O)CC[C@@]4(O)[C@@H](C2)N(C)CC[C@]314` (stereo partly drawn) [Hydroxycodone, α-6-hydroxycodone, reference compound], the concentration giving a half-maximal response (EC50) in experiment [2] is greater than 500 µM.
On to `COCCO[C@H]1CC[C@@]2(O)[C@H]3Cc4ccc(OC)c5c4[C@@]2(CCN3C)[C@H]1O5` [α-6-mPEG1-O-Hydroxycodone, α-6-mPEG1-O-hydroxycodone], for which the EC50 in experiment [2] (setting [3]) is greater than 500 µM.
For `COCCOCCO[C@H]1CC[C@@]2(O)[C@H]3Cc4ccc(OC)c5c4[C@@]2(CCN3C)[C@H]1O5` [α-6-mPEG2-O-Hydroxycodone, α-6-mPEG2-O-hydroxycodone], the EC50 in experiment [2] (setting [3]) was greater than 500 µM.
Still for that read-out and setting: with `COCCOCCOCCO[C@H]1CC[C@@]2(O)[C@H]3Cc4ccc(OC)c5c4[C@@]2(CCN3C)[C@H]1O5` [α-6-mPEG3-O-Hydroxycodone, α-6-mPEG3-O-hydroxycodone] the figure was greater than 500 µM.
`COCCOCCOCCOCCO[C@H]1CC[C@@]2(O)[C@H]3Cc4ccc(OC)c5c4[C@@]2(CCN3C)[C@H]1O5` [α-6-mPEG4-O-Hydroxycodone, α-6-mPEG4-O-hydroxycodone] registered an EC50 in experiment [2] greater than 500 µM.
On to `COCCOCCOCCOCCOCCO[C@H]1CC[C@@]2(O)[C@H]3Cc4ccc(OC)c5c4[C@@]2(CCN3C)[C@H]1O5` [α-6-mPEG5-O-Hydroxycodone, α-6-mPEG5-O-hydroxycodone], for which the EC50 in experiment [2] (setting [3]) was greater than 500 µM.
In experiment [2] (setting [3]), `COCCOCCOCCOCCOCCOCCO[C@H]1CC[C@@]2(O)[C@H]3Cc4ccc(OC)c5c4[C@@]2(CCN3C)[C@H]1O5` [α-6-mPEG6-O-Hydroxycodone, α-6-mPEG6-O-hydroxycodone] yielded an EC50 greater than 500 µM.
On the same count and under the same terms, with `COCCOCCOCCOCCOCCOCCOCCO[C@H]1CC[C@@]2(O)[C@H]3Cc4ccc(OC)c5c4[C@@]2(CCN3C)[C@H]1O5` [α-6-mPEG7-O-Hydroxycodone, α-6-mPEG7-O-hydroxycodone] the figure was greater than 500 µM; with `COCCOCCOCCOCCOCCOCCOCCOCCOCCO[C@H]1CC[C@@]2(O)[C@H]3Cc4ccc(OC)c5c4[C@@]2(CCN3C)[C@H]1O5` [α-6-mPEG9-O-Hydroxycodone, α-6-mPEG9-O-hydroxycodone], greater than 500 µM.
Take α-6-mPEG1-O-codeine: the EC50 in experiment [2] was greater than 500 µM.
In turn, α-6-mPEG4-O-codeine displayed an EC50 in experiment [2] greater than 500 µM.
Same read-out and setting: the value for α-6-mPEG5-O-codeine was greater than 500 µM; that for α-6-mPEG6-O-codeine was greater than 500 µM.
